The results in this text go back to patent US9242933B2 (AbbVie Deutschland GmbH & Co. KG, priority 2007, dated 2016).

The target in the test is T1, human mGlu2 receptor (Homo sapiens, UniProt Q14416).
T1 construct: expressed in transfected cells; host or cells: HEK293
As to the kind of experiment: FLIPR intracellular Ca2+ assay, potentiation of glutamate response in HEK293 clone expressing mGlu2 receptor, rGLAST and Galpha16. The format is cell-based. The following applies: 1 μM glutamate added ten minutes after test compound, HEK293 cells with human mGlu2, rGLAST, Galpha16, read-out: EC50 values of potentiation effect to glutamate. In short, it runs like this: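 HEK293 cells stably expressing human mGlu2, rat GLAST and Gα16 were loaded with 2 µM Fluo-4 AM and intracellular Ca2+ read by FLIPR. Compound added alone (agonism), then with submaximal glutamate (e.g. 1 µM; potentiation). Background-subtracted peaks normalized to 100 µM glutamate response; EC50 from four-parameter fit.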

Some results are limits rather than exact numbers.

T1 sequence (Q14416 19-872): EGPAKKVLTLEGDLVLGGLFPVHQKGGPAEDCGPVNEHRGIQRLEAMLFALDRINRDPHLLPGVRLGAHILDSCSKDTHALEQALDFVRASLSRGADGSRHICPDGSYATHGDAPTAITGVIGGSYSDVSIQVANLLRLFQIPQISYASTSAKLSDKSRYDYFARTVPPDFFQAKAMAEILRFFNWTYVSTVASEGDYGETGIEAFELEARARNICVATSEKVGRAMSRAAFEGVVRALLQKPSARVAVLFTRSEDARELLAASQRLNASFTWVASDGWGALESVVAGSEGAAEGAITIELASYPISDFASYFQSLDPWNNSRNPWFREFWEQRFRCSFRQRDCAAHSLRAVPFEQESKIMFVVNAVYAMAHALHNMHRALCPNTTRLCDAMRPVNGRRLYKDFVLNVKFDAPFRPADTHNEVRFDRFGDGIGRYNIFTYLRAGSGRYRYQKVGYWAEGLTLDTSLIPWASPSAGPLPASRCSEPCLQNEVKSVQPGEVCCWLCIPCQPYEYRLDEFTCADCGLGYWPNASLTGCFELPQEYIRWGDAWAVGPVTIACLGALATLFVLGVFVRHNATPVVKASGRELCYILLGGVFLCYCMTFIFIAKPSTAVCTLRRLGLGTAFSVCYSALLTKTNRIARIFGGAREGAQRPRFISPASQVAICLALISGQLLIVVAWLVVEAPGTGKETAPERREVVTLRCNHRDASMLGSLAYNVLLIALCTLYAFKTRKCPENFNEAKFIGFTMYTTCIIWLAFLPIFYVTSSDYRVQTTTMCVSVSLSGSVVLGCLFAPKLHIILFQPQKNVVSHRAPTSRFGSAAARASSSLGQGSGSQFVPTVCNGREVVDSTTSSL

In general, EC50 refers to the concentration at which the effect is half-maximal. Take `CCCN1Cc2cc(OCc3c[nH]nc3-c3cccc(Cl)c3)ccc2C1=O` [Example 535, 5-[3-(3-Chloro-phenyl)-1H-pyrazol-4-ylmethoxy]-2-propyl-2,3-dihydro-isoindol-1-one]: the EC50 is < 1 µM.

`CCCC(=O)c1ccc(NCc2cccnc2-c2ccsc2)cc1` [Example 321, 1-{4-[(2-Thiophen-3-yl-pyridin-3-ylmethyl)-amino]-phenyl}-butan-1-one]: the EC50 fell in the range of 1 to 10 µM.

Regarding `CCCC(=O)c1ccc(NCc2csc(C(C)C)n2)cc1` [Example 268, 1-{4-[(2-Isopropyl-thiazol-4-ylmethyl)-amino]-phenyl}-butan-1-one], the EC50 was 1 to 10 µM.

As for `CCCC(=O)c1ccc(NCc2ccc(OC)nc2OC)cc1` [Example 317, 1-{4-[(2,6-Dimethoxy-pyridin-3-ylmethyl)-amino]-phenyl}-butan-1-one], the EC50 was in the range of 1 to 10 µM.

Regarding `CCCC(=O)c1ccc(NCc2ccc(-c3ccc(S(N)(=O)=O)cc3)o2)cc1` [Example 35, 4-{5-[(4-Butyrylphenylamino)methyl]furan-2-yl}benzenesulfonamide], the EC50 is 1 to 10 µM.

For `CC(C)(C)c1n[nH]cc1CNc1ccc2c(c1)OCO2` [Example 117, Benzo[1,3]dioxol-5-yl-(3-tert-butyl-1H-pyrazol-4-ylmethyl)-amine], the EC50 was 1 to 10 µM.

With `CCCC(=O)c1cccc(N(C)Cc2c[nH]nc2-c2ccc(C(F)(F)F)cc2)c1` [Example 392, 1-(3-{Methyl-[3-(4-trifluoromethyl-phenyl)-1H-pyrazol-4-ylmethyl]-amino}-phenyl)-butan-1-one], the EC50 lay in the range of 1 to 10 µM.

As to `CN(C)c1cccc(N(Cc2cccnc2)S(=O)(=O)CC(F)(F)F)c1` [Example 389, 2,2,2-Trifluoro-ethanesulfonic acid (3-dimethylamino-phenyl)-pyridin-3-ylmethyl-amide], the EC50 lay within 1 to 10 µM.

As for `CCN1Cc2cc(OCc3c[nH]nc3-c3cccc(F)c3)ccc2C1=O` [Example 560, 2-Ethyl-5-[3-(3-fluorophenyl)-1H-pyrazol-4-ylmethoxy]-2,3-dihydro-isoindol-1-one], the EC50 is < 1 µM.

Regarding `CCCCN1Cc2cc(OCc3c[nH]nc3-c3ccc(F)cc3)ccc2C1=O` [Example 548, 2-Butyl-5-[3-(4-fluorophenyl)-1H-pyrazol-4-ylmethoxy]-2,3-dihydro-isoindol-1-one], the EC50 is < 1 µM.

Turning to `CC(C)CCOc1ccc(NCc2c[nH]nc2C(C)(C)C)cc1` [Example 298, (3-tert-Butyl-1H-pyrazol-4-ylmethyl)-[4-(3-methyl-butoxy)-phenyl]-amine], the EC50 fell in the range of 1 to 10 µM.

Regarding `O=C1c2ccc(OCc3c[nH]nc3-c3ccc(Cl)cc3)cc2CN1CCC(F)(F)F` [Example 539, 5-[3-(4-Chloro-phenyl)-1H-pyrazol-4-ylmethoxy]-2-(3,3,3-trifluoro-propyl)-2,3-dihydro-isoindol-1-one], the concentration giving a half-maximal response (EC50) is < 1 µM.

Regarding `CCN1Cc2cc(OCc3c[nH]nc3-c3cccc(C(F)(F)F)c3)ccc2C1=O` [Example 558, 2-Ethyl-5-[3-(3-trifluoromethyl-phenyl)-1H-pyrazol-4-ylmethoxy]-2,3-dihydro-isoindol-1-one], the EC50 was < 1 µM.

As to `CC(C)CN1Cc2cc(OCc3c[nH]nc3-c3ccc(C(F)(F)F)cc3)ccc2C1=O` [Example 587, 2-Isobutyl-5-[3-(4-trifluoromethyl-phenyl)-1H-pyrazol-4-ylmethoxy]-2,3-dihydro-isoindol-1-one], the EC50 was < 1 µM.

For the compound `CCCC(=O)c1ccc(NCc2c[nH]nc2-c2ccc(O)cc2)cc1` [Example 76, 1-(4-{[3-(4-Hydroxyphenyl)-1H-pyrazol-4-ylmethyl]amino}phenyl)butan-1-one], the EC50 is < 1 µM.

On to `CCCC(=O)c1ccc(NCc2cnccc2-c2ccccc2)cc1` [Example 525, 1-{4-[(4-Phenyl-pyridin-3-ylmethyl)-amino]-phenyl}-butan-1-one], for which the 50% effective concentration (EC50) was < 1 µM.
